Assays:
[1] = biological target: T1, human recombinant 15-PGDH (Homo sapiens, UniProt P15428); test: Recombinant 15-PGDH enzymatic inhibition assay (PGDH-Lumi, NADH signal); format: biochemical; details: recombinant 15-PGDH; 15 min pre-incubation, 60 min reaction with PGE2 and NAD+, NADH signal
T1 sequence (P15428 1-266): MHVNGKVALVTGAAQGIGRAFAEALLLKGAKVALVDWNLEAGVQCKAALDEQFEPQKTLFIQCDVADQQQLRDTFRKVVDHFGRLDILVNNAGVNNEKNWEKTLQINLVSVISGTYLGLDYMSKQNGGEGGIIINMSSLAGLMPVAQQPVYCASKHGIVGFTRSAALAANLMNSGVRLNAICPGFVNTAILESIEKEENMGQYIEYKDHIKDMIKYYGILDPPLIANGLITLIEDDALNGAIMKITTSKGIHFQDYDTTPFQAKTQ
Outline: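 Buffer 50 mM Tris pH 7.5 with 0.01% Tween-20 and […]; compound, 22 two-fold dilutions, pre-incubated with enzyme 15 min before substrate.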

15-PGDH in A549 cells = biological target: T2, 15-PGDH in A549 cells (Homo sapiens, UniProt P15428); test: A549 cellular 15-PGDH assay (PGE2 accumulation, HTRF); format: cell-based; details: interleukin-stimulated, inhibitor 24 hrs, PGE2 by competitive HTRF, read-out: A549 Cell Assay IC50
T2 construct: endogenous in cells; host or cells: A549
T2 sequence (P15428 1-266): T1 sequence (P15428 1-266)
Outline: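 Supernatant PGE2 was quantified by competitive HTRF, in which sample PGE2 blocks FRET between a europium cryptate-labelled antibody and labelled PGE2. It came from A549 epithelial cells induced with IL-13. IC50s were calculated from the inversely proportional signal.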

IC50 [1] [nM] | IC50 (15-PGDH in A549 cells) [nM] | Compound
0.379 | 0.0582 | Cn1cc2cc(-c3ccc4cc(C5(O)CC6(CC(F)(F)C6)C5)sc4n3)cnc2n1 [Compound C27, 6,6-difluoro-2-(6-(2-methyl-2H-pyrazolo[3,4-b]pyridin-5-yl)thieno[2,3-b]pyridin-2-yl)spiro[3.3]heptan-2-ol]
0.472 | 0.452 | Cn1cc2cc(-c3ccc4cc(C5(O)CC6(COC6)C5)sc4n3)cnc2n1 [Compound C28]
0.3 | 0.0513 | Cn1cc2cc(-c3ccc4cc([C@]5(O)C[C@@H](C(F)(F)F)C5)sc4n3)cnc2n1 [Compound C29C, cis-1-(6-(2-methyl-2H-pyrazolo[3,4-b]pyridin-5-yl)thieno[2,3-b]pyridin-2-yl)-3-(trifluoromethyl)cyclobutanol]
0.278 | 0.137 | Cn1cc2cc(-c3ccc4cc([C@]5(O)C[C@@H](C(F)F)C5)sc4n3)cnc2n1 [Compound C30C, cis-3-(difluoromethyl)-1-(6-(2-methyl-2H-pyrazolo[3,4-b]pyridin-5-yl)thieno[2,3-b]pyridin-2-yl)cyclobutanol]
0.356 | 0.157 | CO[C@H]1C[C@](O)(c2cc3ccc(-c4cnc5nn(C)cc5c4)nc3s2)C1 [Compound C31C, cis-3-methoxy-1-(6-(2-methyl-2H-pyrazolo[3,4-b]pyridin-5-yl)thieno[2,3-b]pyridin-2-yl)cyclobutanol]
0.369 | 0.255 | CCn1cc2cc(-c3ccc4cc(C5(O)CC(F)(F)C5)sc4n3)cnc2n1 [Compound C32, 1-(6-(2-ethyl-2H-pyrazolo[3,4-b]pyridin-5-yl)thieno[2,3-b]pyridin-2-yl)-3,3-difluorocyclobutanol]
2.55 | 1.08 | Cn1cnc2cc(-c3ccc4cc(C5(O)CC(F)(F)C5)sc4n3)cnc21 [Compound C33, 3,3-difluoro-1-(6-(3-methyl-3H-imidazo[4,5-b]pyridin-6-yl)thieno[2,3-b]pyridin-2-yl)cyclobutanol]
0.78 | 1.35 | Cc1nc2ncc(-c3ccc4cc(C5(O)CC(F)(F)C5)sc4n3)cc2o1 [Compound C34, 3,3-difluoro-1-(6-(2-methyl[1,3]oxazolo[4,5-b]pyridin-6-yl)thieno[2,3-b]pyridin-2-yl)cyclobutanol]
0.832 | 1.35 | Cc1nc2cc(-c3ccc4cc(C5(O)CC(F)(F)C5)sc4n3)cnc2[nH]1 [Compound C35, 3,3-difluoro-1-(6-(2-methyl-3H-imidazo[4,5-b]pyridin-6-yl)thieno[2,3-b]pyridin-2-yl)cyclobutanol]
0.756 | 0.348 | OC1(c2cc3ccc(-c4cnc5[nH]ncc5c4)nc3s2)CC(F)(F)C1 [Compound C36, 3,3-difluoro-1-(6-(1H-pyrazolo[3,4-b]pyridin-5-yl)thieno[2,3-b]pyridin-2-yl)cyclobutanol]
9.01 | 2.28 | Cc1cn2cc(-c3ccc4cc(C5(O)CC(F)(F)C5)sc4n3)ccc2n1 [Compound C37, 3,3-difluoro-1-(6-(2-methylimidazo[1,2-a]pyridin-6-yl)thieno[2,3-b]pyridin-2-yl)cyclobutanol]
4.59 | 3.75 | Nc1ncc(-c2ccc3cc(C4(O)CC(F)(F)C4)sc3n2)cn1 [Compound C38, 1-(6-(2-amino-5-pyrimidinyl)thieno[2,3-b]pyridin-2-yl)-3,3-difluorocyclobutanol]
10 | 2.87 | Cc1nc2ccc(-c3ccc4cc(C5(O)CC(F)(F)C5)sc4n3)cc2o1 [Compound C39, 3,3-difluoro-1-(6-(2-methyl-1,3-benzoxazol-6-yl)thieno[2,3-b]pyridin-2-yl)cyclobutanol]
0.742 | 1.22 | Cn1cc2cc(-c3ccc4cc([C@]5(O)C[C@@H](F)C5)sc4n3)cnc2n1 [Compound C40C, cis-3-fluoro-1-(6-(2-methyl-2H-pyrazolo[3,4-b]pyridin-5-yl)thieno[2,3-b]pyridin-2-yl)cyclobutanol]
6.58 | 3.36 | Cn1cc2cc(-c3ccc4cc([C@]5(O)C[C@H](F)C5)sc4n3)cnc2n1 [Compound C40T, trans-3-fluoro-1-(6-(2-methyl-2H-pyrazolo[3,4-b]pyridin-5-yl)thieno[2,3-b]pyridin-2-yl)cyclobutanol]
1.24 | 2.15 | OC1(c2cc3ccc(-c4cnc5[nH]cnc5c4)nc3s2)CC(F)(F)C1 [Compound C41, 3,3-difluoro-1-(6-(3H-imidazo[4,5-b]pyridin-6-yl)thieno[2,3-b]pyridin-2-yl)cyclobutanol]
23.8 | 6.81 | OC1(c2cc3ccc(-c4ccc5[nH]ncc5c4)nc3s2)CC(F)(F)C1 [Compound C42, 3,3-difluoro-1-(6-(1H-indazol-5-yl)thieno[2,3-b]pyridin-2-yl)cyclobutanol]

IC50 [1] [nM] | IC50 (15-PGDH in A549 cells) [nM] | Compound
5.3 | 6.34 | CNc1ncc(-c2ccc3cc(C4(O)CC(F)(F)C4)sc3n2)cn1 [Compound C43, 3,3-difluoro-1-(6-(2-(methylamino)-5-pyrimidinyl)thieno[2,3-b]pyridin-2-yl)cyclobutanol]
7.56 | 6.17 | Cc1cn2ccc(-c3ccc4cc(C5(O)CC(F)(F)C5)sc4n3)cc2n1 [Compound C44, 3,3-difluoro-1-(6-(2-methylimidazo[1,2-a]pyridin-7-yl)thieno[2,3-b]pyridin-2-yl)cyclobutanol]
1.68 | 1.35 | Cc1cn2cc(-c3ccc4cc(C5(O)CC(F)(F)C5)sc4n3)cnc2n1 [Compound C45, 3,3-difluoro-1-(6-(2-methylimidazo[1,2-a]pyrimidin-6-yl)thieno[2,3-b]pyridin-2-yl)cyclobutanol]
26.1 | 12.3 | OC1(c2cc3ccc(-c4cncnc4)nc3s2)CC(F)(F)C1 [Compound C46, 3,3-difluoro-1-(6-(5-pyrimidinyl)thieno[2,3-b]pyridin-2-yl)cyclobutanol]
0.996 | 0.373 | OC1(c2cc3ccc(-c4cnc5nccnc5c4)nc3s2)CC(F)(F)C1 [Compound C47, 3,3-difluoro-1-(6-(pyrido[2,3-b]pyrazin-7-yl)thieno[2,3-b]pyridin-2-yl)cyclobutanol]
27.7 | 7.36 | Cn1cc2cc(-c3ccc4cc(C5(O)CC(F)(F)C5)sc4c3)cnc2n1 [Compound C48, 3,3-difluoro-1-(6-(2-methyl-2H-pyrazolo[3,4-b]pyridin-5-yl)-1-benzothiophen-2-yl)cyclobutanol]
13.2 | 1.82 | Cn1cc2cc(-c3ccc4cc(C5(O)CC(F)(F)C5)sc4n3)ccc2n1 [Compound C49, 3,3-difluoro-1-(6-(2-methyl-2H-indazol-5-yl)thieno[2,3-b]pyridin-2-yl)cyclobutanol]
34.7 | 11.1 | OC1(c2cc3ccc(-c4ccc5oncc5c4)nc3s2)CC(F)(F)C1 [Compound C50, 1-(6-(1,2-benzoxazol-5-yl)thieno[2,3-b]pyridin-2-yl)-3,3-difluorocyclobutanol]
2.19 | 1.1 | Cn1nnc2cc(-c3ccc4cc(C5(O)CC(F)(F)C5)sc4n3)cnc21 [Compound C51, 3,3-difluoro-1-(6-(3-methyl-3H-[1,2,3]triazolo[4,5-b]pyridin-6-yl)thieno[2,3-b]pyridin-2-yl)cyclobutanol]
0.361 | 0.0938 | Cn1cc2cc(-c3ccc4cc(C5(O)CC6(CCCCC6)C5)sc4n3)cnc2n1 [Compound C52, 2-(6-(2-methyl-2H-pyrazolo[3,4-b]pyridin-5-yl)thieno[2,3-b]pyridin-2-yl)spiro[3.5]nonan-2-ol]
0.363 | 0.0361 | Cn1cc2cc(-c3ccc4cc(C5(O)CC6(CCCC6)C5)sc4n3)cnc2n1 [Compound C53, 2-(6-(2-methyl-2H-pyrazolo[3,4-b]pyridin-5-yl)thieno[2,3-b]pyridin-2-yl)spiro[3.4]octan-2-ol]
3.51 | 3.06 | Cc1cn2ncc(-c3ccc4cc(C5(O)CC(F)(F)C5)sc4n3)cc2n1 [Compound C54, 3,3-difluoro-1-(6-(2-methylimidazo[1,2-b]pyridazin-7-yl)thieno[2,3-b]pyridin-2-yl)cyclobutanol]
0.821 | 1.59 | OC1(c2cc3ccc(-c4cnc5[nH]nnc5c4)nc3s2)CC(F)(F)C1 [Compound C55]
0.62 | 0.143 | Cn1cc2cc(-c3ncc4cc(C5(O)CC(C)(C)C5)sc4n3)cnc2n1 [Compound C57, 3,3-dimethyl-1-(2-(2-methyl-2H-pyrazolo[3,4-b]pyridin-5-yl)thieno[2,3-d]pyrimidin-6-yl)cyclobutanol]
0.584 | 0.113 | CO[C@]1(C)C[C@@](O)(c2cc3ccc(-c4cnc5nn(C)cc5c4)nc3s2)C1 [Compound C59C, cis-3-methoxy-3-methyl-1-(6-(2-methyl-2H-pyrazolo[3,4-b]pyridin-5-yl)thieno[2,3-b]pyridin-2-yl)cyclobutanol]
52.1 | 26.7 | Cn1cc2cc(-c3ccc4cc(C5(O)CC5)sc4n3)cnc2n1 [Compound C60, 1-(6-(2-methyl-2H-pyrazolo[3,4-b]pyridin-5-yl)thieno[2,3-b]pyridin-2-yl)cyclopropanol]
